# Numbers after ± are expanded uncertainties.
# Assays:
# [1] = for vapor or sublimation pressure: Liquid, Gas chromatography
# [2] = molar enthalpy of vaporization or sublimation; conditions: 298 K; Liquid; DSC
# [3] = Molar enthalpy of transition or fusion; conditions: DSC
vapor or sublimation pressure ([1]; 283.15 K),vapor or sublimation pressure ([1]; 288.15 K),vapor or sublimation pressure ([1]; 293.15 K),vapor or sublimation pressure ([1]; 298.15 K),vapor or sublimation pressure ([1]; 303.15 K),vapor or sublimation pressure ([1]; 308.15 K),vapor or sublimation pressure ([1]; 313.15 K),molar enthalpy [2],Molar enthalpy of transition or fusion ([3]; Crystal 1),Molar enthalpy of transition or fusion ([3]; Crystal 2),"Normal melting temperature ([1]; Crystal 1, DTA)","Triple point temperature ([1]; Crystal 2, DTA)",Compound
1.7e-05 ± 2e-06 kPa,3.1e-05 ± 3e-06 kPa,5.4e-05 ± 5e-06 kPa,9.2e-05 ± 9e-06 kPa,0.000153 ± 1.5e-05 kPa,0.000253 ± 2.5e-05 kPa,0.00041 ± 4.1e-05 kPa,18.5 ± 1 kcal/mol,–,–,–,–,"CCCCCCCCCCCCCCN(C)C [1-tetradecanamine, N,N-dimethyl-]"
2e-07 ± 1e-07 kPa,4e-07 ± 1e-07 kPa,7e-07 ± 1e-07 kPa,1.4e-06 ± 2e-07 kPa,2.5e-06 ± 3e-07 kPa,4.5e-06 ± 5e-07 kPa,7.8e-06 ± 8e-07 kPa,21.3 ± 0.669 kcal/mol,–,–,–,–,CCN(CCCc1ccccc1)CCCc1ccccc1 [N-ethyl-3-phenyl-N-(3-phenylpropyl)propan-1-amine]
7e-08 ± 2e-08 kPa,1.4e-07 ± 2e-08 kPa,2.7e-07 ± 4e-08 kPa,5e-07 ± 6e-08 kPa,9.3e-07 ± 1e-07 kPa,1.7e-06 ± 1.8e-07 kPa,3.03e-06 ± 3.1e-07 kPa,22.1 ± 0.837 kcal/mol,5.5 ± 0.127 kcal/mol,0.264 ± 0.0502 kcal/mol,92.5 ± 0.4 °C,342.5 ± 0.9 K,"c1ccc(CN(Cc2ccccc2)Cc2ccccc2)cc1 [benzenemethanamine, N,N-bis(phenylmethyl)-]"
0.037 ± 0.004 kPa,0.055 ± 0.006 kPa,0.079 ± 0.008 kPa,0.113 ± 0.011 kPa,0.159 ± 0.016 kPa,0.222 ± 0.022 kPa,0.306 ± 0.031 kPa,12.5 ± 1.1 kcal/mol,–,–,–,–,CC(C)CN(CC(C)C)CC(C)C [triisobutylamine]

# Further lines, the molecule ahead of its results:
Compound,vapor or sublimation pressure ([1]; 283.15 K),vapor or sublimation pressure ([1]; 288.15 K),vapor or sublimation pressure ([1]; 293.15 K),vapor or sublimation pressure ([1]; 298.15 K),vapor or sublimation pressure ([1]; 303.15 K),vapor or sublimation pressure ([1]; 308.15 K),vapor or sublimation pressure ([1]; 313.15 K),molar enthalpy [2],Molar enthalpy of transition or fusion ([3]; Crystal 1),Molar enthalpy of transition or fusion ([3]; Crystal 2),"Normal melting temperature ([1]; Crystal 1, DTA)","Triple point temperature ([1]; Crystal 2, DTA)"
"CCCCCCCCCCCCCCCCN(C)C [1-hexadecanamine, N,N-dimethyl-]",2e-06 ± 1e-06 kPa,3e-06 ± 1e-06 kPa,6e-06 ± 1e-06 kPa,1.1e-05 ± 1e-06 kPa,1.9e-05 ± 2e-06 kPa,3.2e-05 ± 3e-06 kPa,5.5e-05 ± 6e-06 kPa,20.3 ± 2.87 kcal/mol,–,–,–,–
C#CCN(C)[C@H](C)Cc1ccccc1 [(R)-N-methyl-N-(1-phenylpropan-2-yl)prop-2-yn-1-amine],0.0006 ± 0.0001 kPa,0.001 ± 0.0001 kPa,0.0016 ± 0.0002 kPa,0.0025 ± 0.0003 kPa,0.0038 ± 0.0004 kPa,0.0058 ± 0.0006 kPa,0.0086 ± 0.0009 kPa,15.4 ± 1.12 kcal/mol,–,–,–,–
C[C@@H](Cc1ccccc1)N(C)Cc1ccccc1 [(S)-N-benzyl-N-methyl-1-phenylpropan-2-amine],8e-06 ± 1e-06 kPa,1.4e-05 ± 2e-06 kPa,2.4e-05 ± 2e-06 kPa,4e-05 ± 4e-06 kPa,6.7e-05 ± 7e-06 kPa,0.000111 ± 1.1e-05 kPa,0.000179 ± 1.8e-05 kPa,18.5 ± 0.55 kcal/mol,–,–,–,–
CCCCN(CCCC)CCCC [tributylamine],0.008 ± 0.001 kPa,0.013 ± 0.001 kPa,0.019 ± 0.002 kPa,0.028 ± 0.003 kPa,0.042 ± 0.004 kPa,0.06 ± 0.006 kPa,0.087 ± 0.009 kPa,13.9 ± 0.98 kcal/mol,–,–,–,–
CCCCCCCCN(CCCCCCCC)CCCCCCCC [trioctylamine],2e-08 ± 1e-08 kPa,3e-08 ± 1e-08 kPa,7e-08 ± 2e-08 kPa,1.4e-07 ± 2e-08 kPa,2.8e-07 ± 4e-08 kPa,5.3e-07 ± 6e-08 kPa,1e-06 ± 1.1e-07 kPa,23.9 ± 0.837 kcal/mol,–,–,–,–
CCCN(CCC)CCC [tripropylamine],0.199 ± 0.02 kPa,0.278 ± 0.028 kPa,0.384 ± 0.038 kPa,0.524 ± 0.052 kPa,0.709 ± 0.071 kPa,0.949 ± 0.095 kPa,1.259 ± 0.13 kPa,–,–,–,–,–

# Reference: the NIST ThermoML archive (doi:10.1021/je500358r)
